Results: patent US10501511B2, “Low molecular polypeptide for preventing and treating inflammation and use thereof” (SHANGHAI FIRST PEOPLE'S HOSPITAL, priority 2013, dated 2019)
Where a SMILES comes first, the peptide text is derived from it.

Key:
[1] = system: TNF-α in LPS-induced RAW264.7 cells; experiment: TNF-α concentration (ELISA) in supernatant of LPS-induced RAW264.7 cells; assay type: cell-based, murine; settings: for concentration of TNF-α in cell supernatant: LPS group 1333.00±476.59, control 561.00±25.65; for TNF-α: Samples 10 μM, Control (LPS) 1425.60
Procedure: (§1) 1.1 Experimental cell strain and Materials: murine peritoneal macrophage cell strain RAW264.7 were purchased from the Cell Bank of Shanghai Institutes for Biological Sciences, CAS; DMEM high glucose medium was purchased from GIBCO; mouse tumor necrosis factor-α (TNF-α) and interleukin-6 (IL-6) enzyme-linked immunosorbent assay (ELISA) kits were purchased from R & D company, US.
(§2) 1.2 Model establishment and Intervention test: RAW264.7 cells were cultured in high glucose DMEM medium containing 10% fetal bovine serum (FBS), and 100 U/ml double antibiotics of penicillin and streptomycin, and placed in 37° C., 5% CO2 incubator for amplification. Cells at Logarithmic growth phase were seeded in 24-well plates at 2.5×10^5/ml. When adhered cells grew well and were cultured to 80-90% of confluence, the medium was replaced by a DMEM medium without 10% FBS for serum-starved culture for 24 hours. RAW264.7 cells were randomly divided into control group, LPS group, LPS+H-RN group with sextuplicate wells for each group. LPS group and LPS+H-RN group were added with 500 μl of different concentrations of H-RN (1, 10, 100 μM) and LPS (100 ng/ml) and the control group was added with an equal volume of DMEM medium, each group was placed in 37° C., 5% CO2 incubator and routinely cultured. Cell supernatants were collected after 24 hours.
(§3) The experiment data was shown as x±s. SPSS 11.0 statistical package was used for statistic analysis and one-way ANOVA was used to compare TNF-α and IL-6 level in supernatant between the groups, and P<0.05 represents statistical significance.

[2] = system: Rat Endotoxin-induced Uveitis (EIU) model; experiment: Clinical manifestation score in rat endotoxin-induced uveitis (EIU) model; assay type: in vivo, Wistar rats; settings: 10 μl into vitreous chamber, 24 hours, score 0-4
Procedure: (§4) 1.1 Experiment animals and materials: healthy male Wistar rats, 140-180 g, 8-10 weeks old, were purchased from Animal Center of Chinese Academy of Medical Sciences; Lipopolysaccharides (LPS), derived from Escherichia coli, was purchased from SIGMA-Aldrich Corporation (U.S.A).
(§5) 1.2 Model establishment and Intervention test: Wistar rats were randomly divided into six groups (9-15 rats for each group) which were LPS group, LPS+1 μg/μl H-RN intervention group, LPS+5 μg/μl H-RN group, LPS+10 μg/μl H-RN group, LPS+10 μg/μl DXM and normal control group (PBS) respectively. 200 μg LPS (2 mg/ml, 100 μl, dissolved in sterile saline) was subcutaneously injected into right foot pad of rats, thereby establishing EIU model. The normal control group was subcutaneously injected with 100 μl sterile saline into the right foot pad of rats. In LPS group, LPS+H-RN (1, 5, 10 μg/μl) intervention group and LPS+10 μg/μl DXM group, each rat was subcutaneously injected with 200 μg LPS into the right foot pad, meanwhile, PBS 10 μl, H-RN PBS solution (1, 5 and 10 μg/μl) 10 μl and DXM PBS solution (10 μg/μl) 10 μl were injected into vitreous chamber respectively.
1.3 Qualitative observation for Clinical manifestations of EIU rats: 24 hours after drug and LPS intervention, rats were observed by biological microscope. The clinical manifestations of rats were evaluated and scored by an independent observer according to the method of Behar-Cohen et al. The severity of EIU was represented by 0-4 scores: 0: no inflammation; 1: mild dilation in conjunctiva and iris vessel; 2: moderate dilation in conjunctiva and iris vessel with anterior chamber flare; 3: severe iris hyperemia with severe anterior chamber flare; 4: anterior chamber cellulose-like exudation, posterior synechia, miosis and hypopyon in addition to 3 points.
(§6) The experiment data was shown as x±s. A one-way ANOVA was used to compare the change of inflammatory cell infiltration of rats in each group. P<0.05 represents statistical significance.

[3] = Water solubility of synthesized polypeptide powder; assay type: physicochemical; settings: white powder
[4] = system: IL-6 in LPS-induced RAW264.7 cells; experiment: IL-6 concentration (ELISA) in supernatant of LPS-induced RAW264.7 cells; assay type: cell-based, murine; settings: for concentration of IL-6 in cell supernatant: LPS group 2650.00±106.07, control 213.00±15.56; for IL-6: Samples 10 μM, Control (LPS) 2713.95
Procedure: as §1, §2, §3

[5] = system: Rat Endotoxin-induced Uveitis (EIU) model; experiment: Count of inflammatory cell infiltration in aqueous humor of EIU rats; assay type: in vivo, Wistar rats; settings: 24 hours, LPS group 164.20±142.7
Procedure: as §4, §5
1.4 Quantitative count for inflammatory cell infiltration in rat aqueous humor: 24 hours after LPS and drug intervention, rats were sacrificed in excess of anesthesia. Under an operating microscope, aqueous humor (30-40 μl/binoculus) was collected by anterior chamber paracentesis with a 30-gauge microsyringe at 1 mm from rat corneal limbus. Aqueous humor samples were diluted with an equal amount of trypan blue dye liquid. Cells in aqueous humor were counted using a hemocytometer under light microscopy by two independent technicians for each region (equivalent with 0.1 μl). The average of the four regions was the number of cells contained in 1 μl aqueous humor.
as §6

[6] = system: RAW264.7 cells; experiment: Cytotoxicity assay (MTS colorimetric method), relative growth rate; assay type: cell-based, murine; settings: concentration range of 0.1 μm-1 mM
Procedure: (§7) 1.1 Experimental cell strain and Materials: murine peritoneal macrophage cell line RAW264.7 were purchased from the Cell Bank of Shanghai Institutes for Biological Sciences, CAS; DMEM high glucose medium were purchased from GIBCO; MTS were purchased from Promega, prepared into 300 mmol/L in PBS (pH 6.0) and stored at −20° C. in darkness.
(§8) 1.2 Model establishment and Intervention test: RAW264.7 cells were cultured in high glucose DMEM medium containing 10% fetal bovine serum (FBS), and 100 U/ml double antibiotics of penicillin and streptomycin, and placed in 37° C., 5% CO2 incubator for amplification. Cells at logarithmic growth phase were seeded in 96-well plates at 1×10^5/ml. When adhered cells grew well and were cultured to 80-90% of confluence, the medium was replaced by a DMEM medium without 10% FBS for serum-starved culture for 24 hours.
(§9) 1.3 Cytotoxicity assay (MTS colorimetric method): After the cells were cultured for 24 hours in serum starvation, different concentrations of H-RN (0.1, 1, 10 μM, 100 μM, 1 mM, 100 μl) were added into each well with sextuplicate wells for each concentration. The blank control group was added with an equal volume of DMEM medium. The plates were placed in 37° C., 5% CO2 incubator and cultured for 24 hours, added with 20 μl of MTS solution to each well and cultured for another 4 hours. The absorbance of each well was measured by an enzyme-linked immunosorbent detector in 490 nm, and the relative growth rate (RGR) of cells was calculated. Formula: RGR=A value of experimental group/A value of control group×100%.
(§10) 1.5. Statistic analysis: The experiment data was shown as x±s. SPSS 11.0 statistical package was used for statistic analysis and one-way ANOVA was used to compare RGR of cells between the groups, and P<0.05 represents statistical significance.

[7] = as above; assay type: cell-based, murine; settings: mouse, RAW264.7 macrophage cells, 24 hours, MTS, blank 100.05±3.95%, read-out: relative growth rate (RGR) of cells
Procedure: as §7, §8, §9, §10

[8] = 1 μM peptide + LPS 100 ng/ml, 24 hours, P>0.05
[9] = 10 μM peptide + LPS 100 ng/ml, 24 hours
[10] = 100 μM peptide + LPS 100 ng/ml, 24 hours
[11] = LPS + 10 μg/μl peptide, LPS group 3.56±0.51
[12] = LPS + 10 μg/μl peptide intravitreal

N=C(N)NCCC[C@H](NC(=O)[C@@H]1CCCN1C(=O)[C@H](CC(N)=O)NC(=O)[C@@H](N)CCCNC(=N)N)C(=O)NCC(=O)N[C@@H](CCC(=O)O)C(=O)N[C@@H](CCC(=O)O)C(=O)NCC(=O)NCC(=O)N1CCC[C@H]1C(=O)N[C@@H](Cc1c[nH]c2ccccc12)C(=O)O [H-RN, RNPRGEEGGPW] (H-RNPRGEEGGPW-OH; N-terminus assumed)
TNF-α in cell supernatant compared with LPS group [1, 8]: no significant difference | concentration of TNF-α in cell supernatant [1, 9]: 737.00 ± 155.56 pg/mL | concentration of TNF-α in cell supernatant [1, 10]: 718.00 ± 79.19 pg/mL | EIU clinical score ([2]; LPS + 1 μg/μl H-RN, LPS group 3.56±0.51, normal control 0.50±0.54): 2.42±0.53 | EIU clinical score ([2]; LPS + 5 μg/μl peptide, LPS group 3.56±0.51): 2.12±0.64 | EIU clinical score [2, 11]: 1.92±0.27 | water solubility [3]: good water solubility | IL-6 in cell supernatant compared with LPS group [4, 8]: no significant difference | concentration of IL-6 in cell supernatant [4, 9]: 1385.00 ± 101.54 pg/mL | concentration of IL-6 in cell supernatant [4, 10]: 1355.00 ± 134.35 pg/mL | count of inflammatory cells in aqueous humor ([5]; LPS + 1 μg/μl peptide intravitreal): 49.14±40.84 ×10^5 cells/ml | count of inflammatory cells in aqueous humor ([5]; LPS + 5 μg/μl peptide intravitreal): 40.40±31.34 ×10^5 cells/ml | count of inflammatory cells in aqueous humor [5, 12]: 37.35±21.44 ×10^5 cells/ml | toxic effects on cells [6]: no significant toxic effects | viability at 24 h, 0.1 µM ([7]; 0.1 μM): 96.9 ± 3.64% | viability at 24 h, 1 µM ([7]; 1 μM): 100 ± 2.67% | viability at 24 h, 10 µM ([7]; 10 μM): 98.3 ± 3.91% | viability at 24 h, 100 µM ([7]; 100 μM): 101 ± 4% | viability at 24 h, 1000 µM ([7]; 1 mM): 95.8 ± 4.92%

GPERWRGPNGE [H-GP, reference compound]
TNF-α in cell supernatant compared with LPS group ([1]; 100 μM peptide, p>0.05): no significant difference | EIU clinical score [2, 11]: 3.32±0.61 | IL-6 in cell supernatant compared with LPS group ([4]; 100 μM peptide, p>0.05): no significant difference | count of inflammatory cells in aqueous humor [5, 12]: 134.66±98.23 ×10^5 cells/ml

KQPRGEEGGPW [Derived polypeptide 2, polypeptide derived from H-RN]
TNF-α [1]: 701.63 pg/mL | IL-6 [4]: 1356.46 pg/mL

NPRGEEGGP [Derived polypeptide 5, polypeptide derived from H-RN]
TNF-α [1]: 745.70 pg/mL | IL-6 [4]: 1395.34 pg/mL

QNPRGDEPGPW [Derived polypeptide 4, polypeptide derived from H-RN]
TNF-α [1]: 765.92 pg/mL | IL-6 [4]: 1411.87 pg/mL

RNPKGEEGGPW [Derived polypeptide 1, polypeptide derived from H-RN]
TNF-α [1]: 724.98 pg/mL | IL-6 [4]: 1365.29 pg/mL

RNPRGEEGGPWCF [Derived polypeptide 6, polypeptide derived from H-RN]
TNF-α [1]: 696.77 pg/mL | IL-6 [4]: 1369.41 pg/mL

RNPRPEEGGAY [Derived polypeptide 3, polypeptide derived from H-RN]
TNF-α [1]: 792.31 pg/mL | IL-6 [4]: 1402.54 pg/mL
